Test results: PubChem BioAssay AID330 (DTP/NCI, 2004)
Several values for one entry are separate records, joined by “and”; a condition that tells them apart may be missing. Equal entries are not always repeated. Toxic doses and inconclusive results are not listed.

Test system: P388 leukemia ip, CD2F1 mice, survival T/C
Experiment: NCI In Vivo Anticancer Drug Screen. Data for tumor model P388 Leukemia (intraperitoneal) in CD2F1 (CDF1) mice
Conditions: endpoint: median survival time, higher = longer survival
Method in brief: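 Mice carrying the transplanted tumor received test compound or vehicle. Survival was recorded in each group, and the value is the treated-group measurement divided by that of the vehicle-treated control group.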

[1] = dose: 50.0 mg/kg/injection, schedule: Q01DX005 (ip), vehicle: Klucel (hydroxypropylcellulose) (HPC)
[2] = dose: 100.0 mg/kg/injection, schedule: Q01DX005 (ip), vehicle: Klucel (hydroxypropylcellulose) (HPC)
[3] = dose: 200.0 mg/kg/injection, schedule: Q01DX005 (ip), vehicle: Klucel (hydroxypropylcellulose) (HPC)
[4] = dose: 25.0 mg/kg/injection, schedule: Q01DX009 (ip), vehicle: saline
[5] = dose: 50.0 mg/kg/injection, schedule: Q01DX009 (ip), vehicle: saline
[6] = dose: 100.0 mg/kg/injection, schedule: Q01DX009 (ip), vehicle: saline
[7] = dose: 60.0 mg/kg/injection, schedule: Q01DX005 (ip), vehicle: saline with Tween-80
[8] = dose: 120.0 mg/kg/injection, schedule: Q01DX005 (ip), vehicle: saline with Tween-80
[9] = dose: 240.0 mg/kg/injection, schedule: Q01DX005 (ip), vehicle: saline with Tween-80
[10] = dose: 50.0 mg/kg/injection, schedule: Q01DX009 (ip), vehicle: saline with Tween-80
[11] = dose: 100.0 mg/kg/injection, schedule: Q01DX009 (ip), vehicle: saline with Tween-80
[12] = dose: 200.0 mg/kg/injection, schedule: Q01DX009 (ip), vehicle: saline with Tween-80
[13] = dose: 50.0 mg/kg/injection, schedule: Q01DX005 (ip), vehicle: saline with Tween-80
[14] = dose: 100.0 mg/kg/injection, schedule: Q01DX005 (ip), vehicle: saline with Tween-80
[15] = dose: 200.0 mg/kg/injection, schedule: Q01DX005 (ip), vehicle: saline with Tween-80
[16] = dose: 30.0 mg/kg/injection, schedule: Q01DX005 (ip), vehicle: saline with Tween-80
[17] = dose: 200.0 mg/kg/injection, schedule: Q01DX009 (ip), vehicle: saline

With `CSC(=S)c1ccc(NS(=O)(=O)c2ccccc2)cc1` the T/C (dose: 100.0 mg/kg/injection, schedule: Q04DX003 (ip), vehicle: saline) was 100 % of control, the T/C (dose: 200.0 mg/kg/injection, schedule: Q04DX003 (ip), vehicle: saline) was 106 % of control and the T/C (dose: 400.0 mg/kg/injection, schedule: Q04DX003 (ip), vehicle: saline) was 105 % of control.

In the case of `c1ccc(C2NCCS2)cc1` (stereo not drawn), the T/C [1] is reported as 100 % of control, the T/C [2] is reported as 104 % of control and the T/C [3] is reported as 104 % of control.

With `Cc1cccn2ccnc12` the T/C [4] was 100 % of control and 93 % of control, the T/C [5] was 100 % of control and 96 % of control and the T/C [6] was 120 % of control and 94 % of control.

`OCC1=C(CO)CC2=C(CC=CC2)C1` was tested, and the T/C [1] was 100 % of control, the T/C [2] was 99 % of control and the T/C [3] was 97 % of control.

With `CCn1c(=O)n(Cc2ccccc2)c(=O)c2ccccc21` the T/C [7] was 93 % of control, the T/C [8] was 93 % of control and the T/C [9] was 91 % of control.

In the case of `CCOC(=O)c1c(C)cc2ccccn12`, the T/C [7] is reported as 103 % of control, the T/C [8] is reported as 103 % of control and the T/C [9] is reported as 105 % of control.

With `CCCCCCCCCCCCCCCCCS(=O)S(=O)O` (stereo not drawn) the T/C [10] was 113 % of control, the T/C [11] was 118 % of control and the T/C (dose: 100.0 mg/kg/injection, schedule: Q04DX003 (ip), vehicle: Klucel (hydroxypropylcellulose) (HPC)) was 100 % of control. The T/C [12] was 122 % of control, the T/C (dose: 200.0 mg/kg/injection, schedule: Q04DX003 (ip), vehicle: Klucel (hydroxypropylcellulose) (HPC)) was 109 % of control and the T/C (dose: 400.0 mg/kg/injection, schedule: Q04DX003 (ip), vehicle: Klucel (hydroxypropylcellulose) (HPC)) was 113 % of control.

`C=C(c1ccc(OC)cc1)c1cc(C(C)(C)C)c(O)c(C(C)(C)C)c1` was tested, and the T/C (dose: 50.0 mg/kg/injection, schedule: Q01DX005 (ip), vehicle: saline + Tween-80 + alcohol) was 101 % of control, the T/C (dose: 100.0 mg/kg/injection, schedule: Q01DX005 (ip), vehicle: saline + Tween-80 + alcohol) was 97 % of control and the T/C (dose: 200.0 mg/kg/injection, schedule: Q01DX005 (ip), vehicle: saline + Tween-80 + alcohol) was 100 % of control.

In the case of `Cc1nn(C23CC4CC(CC(C4)C2)C3)c(C(Cl)Cl)c1Cl`, the T/C [7] is reported as 100 % of control, the T/C [8] is reported as 94 % of control and the T/C [9] is reported as 94 % of control.

`COc1ccc2c(CCN(/C=C/C(C)=O)C(C)=O)cn(C(C)=O)c2c1` was tested, and the T/C (dose: 12.5 mg/kg/injection, schedule: Q01DX005 (ip), vehicle: Klucel (hydroxypropylcellulose) (HPC)) was 109 % of control, the T/C (dose: 25.0 mg/kg/injection, schedule: Q01DX005 (ip), vehicle: Klucel (hydroxypropylcellulose) (HPC)) was 104 % of control and the T/C [1] was 100 % of control.

`Clc1ccc(N=C(SSC(Cl)(Cl)Cl)SSC(Cl)(Cl)Cl)cc1` was tested, and the T/C [12] was 114 % of control.

`C=C(C)c1nc(N)nc(NCc2ccccc2)n1` was tested, and the T/C [1] was 100 % of control, the T/C [2] was 102 % of control and the T/C [3] was 109 % of control.

With `CC(Cl)(C=O)c1ccccc1` (stereo not drawn) the T/C [7] was 100 % of control and the T/C [8] was 97 % of control.

`S=c1[nH]ncn2nc3ccccc3c12` was tested, and the T/C [13] was 100 % of control, the T/C [14] was 97 % of control and the T/C [15] was 97 % of control.

In the case of `O=C(N/N=C\c1c(O)ccc2ccccc12)C1CC1`, the T/C [1] is reported as 103 % of control, the T/C [2] is reported as 97 % of control and the T/C [3] is reported as 101 % of control.

In the case of `CCC(=NCCCCCCN=C(CC)c1cc(O)ccc1O)c1cc(O)ccc1O.[Fe]`, the T/C [13] is reported as 88 % of control, the T/C [14] is reported as 89 % of control and the T/C [15] is reported as 91 % of control.

For `N#Cc1c(=O)[nH]nc2c3ccccc3c3ccccc3c12`, the T/C (dose: 100.0 mg/kg/injection, schedule: Q04DX002 (ip), vehicle: saline with Tween-80) was 92 % of control, the T/C (dose: 200.0 mg/kg/injection, schedule: Q04DX002 (ip), vehicle: saline with Tween-80) was 95 % of control and the T/C (dose: 400.0 mg/kg/injection, schedule: Q04DX002 (ip), vehicle: saline with Tween-80) was 96 % of control.

For `Cc1cccc(NN=O)n1`, the T/C (dose: 1.5 mg/kg/injection, schedule: Q01DX009 (ip), vehicle: water) was 98 % of control, the T/C (dose: 1.56 mg/kg/injection, schedule: Q01DX009 (ip), vehicle: water) was 99 % of control and the T/C (dose: 3.0 mg/kg/injection, schedule: Q01DX009 (ip), vehicle: water) was 107 % of control. The T/C (dose: 3.12 mg/kg/injection, schedule: Q01DX009 (ip), vehicle: water) was 115 % of control, the T/C (dose: 6.25 mg/kg/injection, schedule: Q01DX009 (ip), vehicle: water) was 120 % of control and the T/C (dose: 25.0 mg/kg/injection, schedule: Q01DX009 (ip), vehicle: water) was 163 % of control.

In the case of `Cc1ccc(S(=O)(=O)C(CCS(C)(=O)=O)C(=O)c2ccccc2)cc1` (stereo not drawn), the T/C [7] is reported as 100 % of control and 93 % of control, the T/C [8] is reported as 92 % of control and the T/C [9] is reported as 88 % of control and 90 % of control and 91 % of control.

`Cc1[nH]cc2c1C(c1ccccc1)=NCC(=O)N2` was tested, and the T/C [10] was 105 % of control, the T/C [11] was 100 % of control and the T/C [12] was 114 % of control.

With `CCN(CC)CC(=O)Nc1ccc2c(c1)C(=O)c1cc(NC(=O)CN(CC)CC)ccc1-2` the T/C [10] was 86 % of control, the T/C [11] was 94 % of control and the T/C [12] was 96 % of control.

`CCN(CC)CCN1C(=O)CN=C(c2ccc[nH]2)c2cc(Cl)ccc21` was tested, and the T/C [11] was 90 % of control, the T/C (dose: 100.0 mg/kg/injection, schedule: Q04DX003 (ip), vehicle: saline with Tween-80) was 100 % of control and the T/C (dose: 200.0 mg/kg/injection, schedule: Q04DX003 (ip), vehicle: saline with Tween-80) was 100 % of control. For the same molecule, the T/C (dose: 400.0 mg/kg/injection, schedule: Q01DX009 (ip), vehicle: saline with Tween-80) was 95 % of control and the T/C (dose: 400.0 mg/kg/injection, schedule: Q04DX003 (ip), vehicle: saline with Tween-80) was 95 % of control.

With `CCC1=C[C@H]2CN(CCc3c([nH]c4ccccc34)[C@@](OC(C)=O)(c3cc4c(cc3OC)N(C)[C@H]3[C@@](O)(C(=O)NCCSc5ccccc5)[C@H](O)[C@]5(CC)C=CCN6CC[C@]43[C@@H]65)C2)C1` the T/C (dose: 0.5 mg/kg/injection, schedule: Q01DX001 (ip), vehicle: water) was 107 % of control, the T/C (dose: 8.0 mg/kg/injection, schedule: Q01DX001 (ip), vehicle: water) was 174 % of control and the T/C (dose: 16.0 mg/kg/injection, schedule: Q01DX001 (ip), vehicle: water) was 163 % of control and 184 % of control.

In the case of `O=C1CN(c2ccccc2)C(=O)C1C(=O)Nc1ccc(Cl)c(Cl)c1` (stereo not drawn), the T/C [16] is reported as 117 % of control, the T/C [7] is reported as 121 % of control and 123 % of control and the T/C [9] is reported as 90 % of control.

With `c1ccc(CN2CC[N+](Cc3ccccc3)=C2C2=[N+](Cc3ccccc3)CCN2Cc2ccccc2)cc1` the T/C (dose: 12.5 mg/kg/injection, schedule: Q01DX009 (ip), vehicle: suspension in saline) was 89 % of control, the T/C (dose: 25.0 mg/kg/injection, schedule: Q01DX009 (ip), vehicle: suspension in saline) was 96 % of control and the T/C (dose: 50.0 mg/kg/injection, schedule: Q01DX009 (ip), vehicle: suspension in saline) was 91 % of control.

With `O=C(O)[C@@H]1C[C@@H](O)CN1` the T/C [5] was 96 % of control, the T/C [6] was 96 % of control and the T/C [17] was 100 % of control.

With `CSc1n[nH]c(N)c1C(N)=O` the T/C (dose: 100.0 mg/kg/injection, schedule: Q01DX001 (ip), vehicle: saline with Tween-80) was 107 % of control, the T/C (dose: 200.0 mg/kg/injection, schedule: Q01DX001 (ip), vehicle: saline with Tween-80) was 100 % of control and the T/C (dose: 400.0 mg/kg/injection, schedule: Q01DX001 (ip), vehicle: saline with Tween-80) was 111 % of control.

With `N#CNC(=O)c1ccc(C(=O)NC#N)cc1` the T/C [13] was 98 % of control, the T/C [14] was 98 % of control and the T/C [15] was 90 % of control.

With `Cc1nc(-c2ccc(Cl)cc2)c(Cc2c(O)ccc3ccccc23)c(=O)[nH]1` the T/C [5] was 102 % of control, the T/C [6] was 102 % of control and the T/C [17] was 102 % of control.

In the case of `Nc1nc(N)c2c(Cl)c(CNc3ccc(C(=O)NC(CC(=O)O)C(=O)O)cc3)ccc2n1` (stereo not drawn), the T/C (dose: 0.39 mg/kg/injection, schedule: Q01DX009 (ip), vehicle: saline with Tween-80) is reported as 210 % of control, the T/C (dose: 0.78 mg/kg/injection, schedule: Q01DX009 (ip), vehicle: saline with Tween-80) is reported as 201 % of control and the T/C (dose: 1.56 mg/kg/injection, schedule: Q01DX009 (ip), vehicle: saline with Tween-80) is reported as 90 % of control. For the same molecule, the T/C (dose: 780.0 micrograms/kg/injection, schedule: Q01DX009 (ip), vehicle: saline with Tween-80) was 194 % of control and the T/C (dose: 1560.0 micrograms/kg/injection, schedule: Q01DX009 (ip), vehicle: saline with Tween-80) was 94 % of control.

In the case of `Nc1nc2c(c(=O)[nH]1)CNC2=O`, the T/C [4] is reported as 112 % of control, the T/C [5] is reported as 116 % of control and the T/C [6] is reported as 113 % of control.

In the case of `C/C(=N\Nc1ccc([N+](=O)[O-])cc1[N+](=O)[O-])c1ccc[nH]1`, the T/C (dose: 15.0 mg/kg/injection, schedule: Q01DX005 (ip), vehicle: saline with Tween-80) is reported as 96 % of control, the T/C [16] is reported as 87 % of control and the T/C [7] is reported as 89 % of control.
